# Measurements taken from patent US12264146B2, “Rho kinase inhibitor, method for preparing same and uses thereof” (BEIJING INCREASE INNOVATIVE DRUG CO., LTD., priority 2018, dated 2025).
# Tests used:
# [1] = system: subarachnoid hemorrhage in rats; experiment: Rat subarachnoid hemorrhage (SAH) model by intravascular puncture, Sugawara bleeding score; assay type: in vivo; parameters: dose or concentration left out as unconfirmed; details: tail vein injection, 2 administrations 4 h apart, scored 24 h after first administration (Sugawara)
# Description: Rat subarachnoid hemorrhage (SAH) model was built by intravascular puncture. After being weighed, the rats were anesthetized with sodium pentobarbital (50 mg/kg) or chloral hydrate (300 mg/kg) by intraperitoneal injection, then fixed on their back and maintained the animal's body temperature at about 37° C. The rats' neck skin was shaved for surgery, a median incision was made on the neck, and muscle and fascia were separated along the inner edge of stemocleidomastoid muscle to expose the main and bifurcation of right common carotid artery, and expose the external and internal carotid arteries.
# The bifurcation of internal carotid artery was gently clamped with ophthalmic forceps, the bifurcation of the internal carotid artery and the external carotid artery was pierced with a 6-gauge syringe needle, the ophthalmic forceps holding the bifurcation of internal carotid artery was slightly loosen, and No. 3 fishing thread was used to perform a puncture at the bleeding point, the ophthalmic forceps on the internal carotid artery was loosen, and the fishing thread was inserted into skull. […] After staying for 15 seconds, the thread for puncture was completely removed, and the skin was sutured after compression to stop the bleeding. 1.6 million units of penicillin potassium (400,000 units/ml, 0.2 ml/rat) was intramuscularly injected to avoid wound infection. For the sham operation group, the thread for puncture was removed when resistance was felt without piercing the bifurcation of the anterior cerebral artery and the middle cerebral artery, while the remaining operation steps were the same as the model group. After the operation, the rats were transferred to a thermal insulation blanket, then transferred to a squirrel cage when they were basically awake, and kept normally.
# In this test experimental, 32 groups were set, i.e., Groups 1 to 32, in which Group 1 was a normal control group (healthy rats), Group 2 was a sham operation control group (not modeling by puncture), Group 3 was a model control group (modeling by puncture, administrated with normal saline), Group 4 was a positive control group (modeling by puncture, administrated with fasudil hydrochloride injection), and Groups 5 to 32 were test groups of the compounds of the present application (modeling by puncture, respectively administrated with the compounds of the present application); and there were 8 animals (purchased from SPF (Beijing) Biotechnology Co., Ltd., the certificate number was SYXK (Beijing) 2016-0002) in each group, half of them were female and half of them were male. The animals were subjected to fasting for 12 to 18 hours without prohibition of drinking water before modeling. […] The rats were euthanized 24 h after the first administration, and the brains were taken. According to Sugawara's method (Reference: Sugawara T, Ayer R, Jadhav V, et al. A new grading system evaluating bleeding scale in filament perforation subarachnoid hemorrhage rat model. J Neurosci Methods. 2008, 167(2):327-34), the subarachnoid hemorrhage amounts were scored, and the scoring results were as follows: […]
# [2] = Toxicity test on endothelial cells EA.hy926, CCK-8 cell viability; assay type: cell-based; details: human, 1000~0.32 μmol/L, 5-fold dilution, read-out: IC50 of Test compound (cytotoxicity on EA.hy926 cells)
# Description: In this test example, 31 groups, i.e., Groups 1 to 31, were set, in which Group 1 was a blank control group, Group 2 was a normal control group, Group 3 was a positive control group, and Groups 4 to 31 were test groups of the compounds of the present application. The specific test operation comprised: 100 μL of endothelial cells EA.hy926 (purchased from Suzhou Beina Chuanglian Biotechnology Co., Ltd.) with a density of 5×10^4 was added to each well of a 96-well plate, and transferred to an incubator at 37° C. with 5% CO2 and saturated humidity conditions and cultured for 24 hours, 100 μL of 2× the test compound solution prepared and diluted with DMEM medium containing 10% fetal bovine serum was added, in which the test compound added in the positive control group was Fasudil hydrochloride (purchased from Beijing Sihuan Pharmaceutical Co., Ltd., SFDA approval number H20173349) solution with different concentrations, an equal volume of DMEM medium was added in the blank control group, an equal volume of PBS buffer was added in the normal control group, and a duplicate well was set for each concentration point. After adding the test compound, the culture was continued in the incubator for 24 hours, then 20 μL of CCK-8 detection solution (purchased from Beijing Solarbio Science & Technology Co., Ltd., Cat. No. CA1210) was added to each well, interacted at 37° C. for 2.5 hours, shaken and mixed well, and then the absorbance value at 450 nm was detected.
# OD values were detected, and the cell viability values of test groups of different concentrations were calculated according to the cell viability calculation formula as follows: Cell viability=(Atest group−Ablank control)/(Anormal control−Ablank control)*100%
# wherein A represented absorbance value at 450 nm.
# Prism6.0 was used to obtain the inhibitor concentration-viability curve and to calculate the IC50 of the test compound, the correlation coefficient R^2>0.99; the inhibitor concentration-viability curves of Fasudil hydrochloride, R-YK1601, R-YK1603, R-YK1606, R-YK1607, R-YK1610 were shown in FIGS. 1 to 6, in which the abscissa was the logarithm on base 10 of the concentration of the test compound, and the ordinate was the cell activity (i.e., cell viability).
Structure (SMILES),Cerebral hemorrhage volume score (x ± s) [1],IC50 at 24 h [2] [µM]
"CC1CNCCCN1S(=O)(=O)c1cccc2c(O)ncc(F)c12 (racemic) [Compound YK1604, 4-fluoro-5-((2-methyl-1,4-diazacycloheptan-1-yl)sulfonyl)isoquinolin-1-ol]",13.08 ± 1.97,130
"CCc1cnc(O)c2cccc(S(=O)(=O)N3CCCNCC3C)c12 (racemic) [Compound YK1607, 4-ethyl-5-((2-methyl-1,4-diazacycloheptan-1-yl)sulfonyl)isoquinolin-1-ol]",13.09 ± 2.09,139
"CC1CNCCCN1S(=O)(=O)c1cccc2cnccc12 (racemic) [Compound YK1603, 5-((2-methyl-1,4-diazacycloheptan-1-yl)sulfonyl)isoquinoline]",12.96 ± 1.99,176
"CC1CNCCCN1S(=O)(=O)c1cccc2c(O)ncc(C3CC3)c12 (racemic) [Compound YK1600-1, 4-cyclopropyl-5-((2-methyl-1,4-diazacycloheptan-1-yl)sulfonyl)isoquinolin-1-ol]",14.36 ± 2.53,97.8
"COc1ncc(C2CC2)c2c(S(=O)(=O)N3CCCNCC3C)cccc12 (racemic) [Compound YK1600-2, 4-cyclopropyl-1-methoxy-5-((2-methyl-1,4-diazacycloheptan-1-yl)sulfonyl)isoquinoline]",14.49 ± 2.62,85.1
"CC(C)C1CNCCCN1S(=O)(=O)c1cccc2c(O)nccc12 (racemic) [Compound YK1609, 5-((2-isopropyl-1,4-diazacycloheptan-1-yl)sulfonyl)isoquinolin-1-ol]",13.27 ± 1.96,228
"CC1CNCCCN1S(=O)(=O)c1cccc2c(O)ncc(Cl)c12 (racemic) [Compound YK1606, 4-chloro-5-((2-methyl-1,4-diazacycloheptan-1-yl)sulfonyl)isoquinolin-1-ol]",13.71 ± 2.03,98
"CC1CNCCCN1S(=O)(=O)c1cccc2c(O)nccc12 (racemic) [Compound YK1601, 5-((2-methyl-1,4-diazacycloheptan-1-yl)sulfonyl)isoquinolin-1-ol]",12.75 ± 2.01,496
"COc1nccc2c(S(=O)(=O)N3CCCNCC3CCC(C)C)cccc12 (racemic) [Compound YK1612, 5-((2-isopentyl-1,4-diazacycloheptan-1-yl)sulfonyl)-1-methoxyisoquinoline]",14.05 ± 1.96,89.6
"COc1ncc(F)c2c(S(=O)(=O)N3CCCNCC3C)cccc12 (racemic) [Compound YK1605, 4-fluoro-1-methoxy-5-((2-methyl-1,4-diazacycloheptan-1-yl)sulfonyl)isoquinoline]",13.95 ± 2.02,103
"O=S(=O)(c1cccc2cnccc12)N1CCCNCC1C1CC1 (racemic) [Compound YK1608, 5-((2-cyclopropyl-1,4-diazacycloheptan-1-yl)sulfonyl)isoquinoline]",13.98 ± 2.01,165
"CCCCC1CNCCCN1S(=O)(=O)c1cccc2c(O)nccc12 (racemic) [Compound YK1611, 5-((2-butyl-1,4-diazacycloheptan-1-yl)sulfonyl)isoquinolin-1-ol]",13.39 ± 2.03,184
"COc1nccc2c(S(=O)(=O)N3CCCNCC3C)cccc12 (racemic) [Compound YK1602, 1-methoxy-5-((2-methyl-1,4-diazacycloheptan-1-yl)sulfonyl)isoquinoline]",12.92 ± 2.03,333
"CCC1CNCCCN1S(=O)(=O)c1cccc2c(OC)nccc12 (racemic) [Compound YK1610, 5-((2-ethyl-1,4-diazacycloheptan-1-yl)sulfonyl)-1-methoxyisoquinoline]",13.83 ± 2.01,98.8
